Experimental data from patent US20250346580A1, “NOVEL PYRIMIDINYL SULFONAMIDE DERIVATIVES” (Hoffmann-La Roche Inc., priority 2023, published 2025).

Biological target: human GPR17 short isoform (Homo sapiens, UniProt Q13304)
Assay: GPR17 cAMP assay (hGPR17 cAMP)
Format: cell-based
Conditions: CHO-K1 cells stably expressing human GPR17 short isoform; antagonist mode with EC80 of MDL29,951, forskolin 15 μM, TR-FRET cAMP
Procedure: GPR17 cAMP Assay Protocol:
CHO-K1 cells stably expressing vector containing untagged human GPR17 short isoform (Roche) were cultured at 37° C./5% CO2 in DMEM (Dulbecco's Modified Eagle Medium):F-12 (1:1) supplemented with 10% foetal bovine serum and 400 μg/ml Geneticin.
Changes in intracellular cyclic adenosine monophosphate (cAMP) levels were quantified using the Nano-TRF Detection Assay kit (Roche Diagnostics, Cat. No. 05214386001). This assay allows for direct cAMP quantification in a homogeneous solution. cAMP is detected based on time-resolved fluorescence energy transfer (TR-FRET) and competitive binding of ruthenylated cAMP and endogenous cAMP to an anti-cAMP monoclonal antibody labeled with AlexaFluor-700. The Ruthenium complex serves as the FRET donor and transfers energy to AlexaFluor-700. The FRET signal is inversely proportional to the cAMP concentration.
CHO-GPR17S cells were detached with Accutase and resuspended in assay buffer consisting of Hank's Balanced Salt Solution (HBSS), 10 mM HEPES (4-(2-hydroxyethyl) piperazine-1-ethanesulfonic acid solution) and 0.1% bovine serum albumin (pH 7.4). The cells were seeded in black 384-well plates (Corning) at a density of 10'000 cells/20 μl assay buffer until the addition of compounds.
Test antagonist compounds were serially diluted in dimethyl sulfoxide (DMSO) and spotted in 384-well plates. The compounds were then diluted in HBSS buffer supplemented with an EC80 concentration of MDL29,951 (3-(2-Carboxy-4,6-dichloroindol-3-yl)propionic acid) (GPR17 agonist) plus 3-Isobutyl-1-methylxanthine (IBMX) (0.5 mM final concentration) and added to the cells at room temperature. Forskolin (15 μM final concentration) was added 5 minutes after the test compounds and the cells were incubated at room temperature for 30 minutes. The assay was stopped by adding cAMP detection mix (containing detergents for cell lysis) for 90 minutes at room temperature.
Cellular cAMP was measured using a Paradigm reader (Molecular Devices). The raw data was used to calculate the FRET signal based on the assay's P-factor as per cAMP kit instructions. The data was normalized to the maximal activity of a reference antagonist and dose response curves were fitted to the percent activity of the test compounds using a sigmoidal dose response model (Genedata Screener).

Chain of human GPR17 short isoform (Q13304 29-367): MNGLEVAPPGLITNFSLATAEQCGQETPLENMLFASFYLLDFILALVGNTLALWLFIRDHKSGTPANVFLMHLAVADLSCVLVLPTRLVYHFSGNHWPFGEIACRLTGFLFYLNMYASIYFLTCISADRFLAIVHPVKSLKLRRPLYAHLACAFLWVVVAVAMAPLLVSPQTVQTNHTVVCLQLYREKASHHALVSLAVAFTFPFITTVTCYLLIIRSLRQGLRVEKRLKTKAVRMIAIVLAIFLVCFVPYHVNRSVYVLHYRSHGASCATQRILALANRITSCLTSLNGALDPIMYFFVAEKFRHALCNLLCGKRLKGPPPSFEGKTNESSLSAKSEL

IC50 [nM] | Structure (SMILES)
478 | COc1nc(NS(=O)(=O)c2c[nH]c(-c3ccccc3)c2)nc(OC)c1OC(F)F [Example 2, N-[5-(difluoromethoxy)-4,6-dimethoxy-pyrimidin-2-yl]-5-phenyl-1H-pyrrole-3-sulfonamide]
73 | COc1nc(NS(=O)(=O)c2c[nH]c(-c3ccccc3)c2)nc(OC)c1OCCF [Example 3, N-[5-(2-fluoroethoxy)-4,6-dimethoxy-pyrimidin-2-yl]-5-phenyl-1H-pyrrole-3-sulfonamide]
500 | COc1nc(NS(=O)(=O)c2c[nH]c(-c3nccs3)c2)nc(OC)c1OCC(F)F [Example 4, N-[5-(2,2-difluoroethoxy)-4,6-dimethoxy-pyrimidin-2-yl]-5-thiazol-2-yl-1H-pyrrole-3-sulfonamide]
325 | COc1nc(NS(=O)(=O)c2c[nH]c(-c3ncccc3F)c2)nc(OC)c1OC(F)F [Example 5, N-[5-(difluoromethoxy)-4,6-dimethoxy-pyrimidin-2-yl]-5-(3-fluoro-2-pyridyl)-1H-pyrrole-3-sulfonamide]
107 | COc1nc(NS(=O)(=O)c2c[nH]c(-c3ncccc3F)c2)nc(OC)c1CC(F)F [Example 6, N-[5-(2,2-difluoroethyl)-4,6-dimethoxy-pyrimidin-2-yl]-5-(3-fluoro-2-pyridyl)-1H-pyrrole-3-sulfonamide]
99 | COc1nc(NS(=O)(=O)c2c[nH]c(-c3ncccc3F)c2)nc(OC)c1OCC(F)F [Example 8, N-[5-(2,2-difluoroethoxy)-4,6-dimethoxy-pyrimidin-2-yl]-5-(3-fluoro-2-pyridyl)-1H-pyrrole-3-sulfonamide]
697 | COc1nc(NS(=O)(=O)c2c[nH]c(-c3nccs3)c2)ncc1OCC(F)F [Example 9, N-[5-(2,2-difluoroethoxy)-4-methoxy-pyrimidin-2-yl]-5-thiazol-2-yl-1H-pyrrole-3-sulfonamide]
69 | COc1nc(NS(=O)(=O)c2c[nH]c(-c3nccs3)c2)nc(OC)c1CCC#N [Example 10, N-[5-(2-cyanoethyl)-4,6-dimethoxy-pyrimidin-2-yl]-5-thiazol-2-yl-1H-pyrrole-3-sulfonamide]
142 | COc1nc(NS(=O)(=O)c2c[nH]c(-c3ccsn3)c2)nc(OC)c1OCC(F)F [Example 11, N-[5-(2,2-difluoroethoxy)-4,6-dimethoxy-pyrimidin-2-yl]-5-isothiazol-3-yl-1H-pyrrole-3-sulfonamide]
169 | COc1nc(NS(=O)(=O)c2c[nH]c(-c3ccccc3)c2)nc(OC)c1CC(F)F [Example 12, N-[5-(2,2-difluoroethyl)-4,6-dimethoxy-pyrimidin-2-yl]-5-phenyl-1H-pyrrole-3-sulfonamide]
661 | COc1nc(NS(=O)(=O)c2c[nH]c(-c3cscn3)c2)nc(OC)c1CC(F)F [Example 15, N-[5-(2,2-difluoroethyl)-4,6-dimethoxy-pyrimidin-2-yl]-5-thiazol-4-yl-1H-pyrrole-3-sulfonamide]
2270 | COc1nc(NS(=O)(=O)c2c[nH]c(-c3cscn3)c2)nc(OC)c1OC(F)F [Example 16, N-[5-(difluoromethoxy)-4,6-dimethoxy-pyrimidin-2-yl]-5-thiazol-4-yl-1H-pyrrole-3-sulfonamide]
133 | COc1nc(NS(=O)(=O)c2c[nH]c(-c3ccccn3)c2)nc(OC)c1CC(F)F [Example 17, N-[5-(2,2-difluoroethyl)-4,6-dimethoxy-pyrimidin-2-yl]-5-(2-pyridyl)-1H-pyrrole-3-sulfonamide]
344 | COc1nc(NS(=O)(=O)c2c[nH]c(-c3ccccn3)c2)nc(OC)c1OC(F)F [Example 18, N-[5-(difluoromethoxy)-4,6-dimethoxy-pyrimidin-2-yl]-5-(2-pyridyl)-1H-pyrrole-3-sulfonamide]
182 | COc1nc(NS(=O)(=O)c2c[nH]c(-c3ccccn3)c2)nc(OC)c1OCC(F)F [Example 19, N-[5-(2,2-difluoroethoxy)-4,6-dimethoxy-pyrimidin-2-yl]-5-(2-pyridyl)-1H-pyrrole-3-sulfonamide]
198 | COc1nc(NS(=O)(=O)c2c[nH]c(-c3nc(C)cs3)c2)nc(OC)c1CC(F)F [Example 20, N-[5-(2,2-difluoroethyl)-4,6-dimethoxy-pyrimidin-2-yl]-5-(4-methylthiazol-2-yl)-1H-pyrrole-3-sulfonamide]

IC50 [nM] | Structure (SMILES)
635 | COc1nc(NS(=O)(=O)c2c[nH]cc2Cc2ccccc2)nc(OC)c1CC(F)F [Example 21, 4-benzyl-N-[5-(2,2-difluoroethyl)-4,6-dimethoxy-pyrimidin-2-yl]-1H-pyrrole-3-sulfonamide]
2260 | COc1nc(NS(=O)(=O)c2c[nH]cc2Cc2ccccc2)nc(OC)c1OC(F)F [Example 22, 4-benzyl-N-[5-(difluoromethoxy)-4,6-dimethoxy-pyrimidin-2-yl]-1H-pyrrole-3-sulfonamide]
45 | COc1nc(NS(=O)(=O)c2c[nH]c(-c3ncccc3F)c2)nc(OC)c1CCC#N [Example 23, N-[5-(2-cyanoethyl)-4,6-dimethoxy-pyrimidin-2-yl]-5-(3-fluoro-2-pyridyl)-1H-pyrrole-3-sulfonamide]
331 | COc1nc(NS(=O)(=O)c2c[nH]c(-c3ncccc3F)c2)ncc1CC(F)F [Example 24, N-[5-(2,2-difluoroethyl)-4-methoxy-pyrimidin-2-yl]-5-(3-fluoro-2-pyridyl)-1H-pyrrole-3-sulfonamide]
916 | COc1nc(NS(=O)(=O)c2c[nH]c(-c3cscn3)c2)nc(OC)c1OCCF [Example 25, N-[5-(2-fluoroethoxy)-4,6-dimethoxy-pyrimidin-2-yl]-5-thiazol-4-yl-1H-pyrrole-3-sulfonamide]
724 | COc1nc(NS(=O)(=O)c2c[nH]c(-c3cscn3)c2)nc(OC)c1OCC(F)F [Example 26, N-[5-(2,2-difluoroethoxy)-4,6-dimethoxy-pyrimidin-2-yl]-5-thiazol-4-yl-1H-pyrrole-3-sulfonamide]
127 | COc1nc(NS(=O)(=O)c2c[nH]c(-c3ccccn3)c2)nc(OC)c1OCCF [Example 27, N-[5-(2-fluoroethoxy)-4,6-dimethoxy-pyrimidin-2-yl]-5-(2-pyridyl)-1H-pyrrole-3-sulfonamide]
1080 | COc1nc(NS(=O)(=O)c2c[nH]cc2Cc2ccccc2)nc(OC)c1OCCF [Example 28, 4-benzyl-N-[5-(2-fluoroethoxy)-4,6-dimethoxy-pyrimidin-2-yl]-1H-pyrrole-3-sulfonamide]
964 | [2H]C([2H])(c1cccc(F)c1)c1c[nH]cc1S(=O)(=O)Nc1nc(OC)c(OCC(F)F)c(OC)n1 [Example 29, 4-[dideuterio-(3-fluorophenyl)methyl]-N-[5-(2,2-difluoroethoxy)-4,6-dimethoxy-pyrimidin-2-yl]-1H-pyrrole-3-sulfonamide]
1860 | COc1nc(NS(=O)(=O)c2c[nH]cc2Cc2ccccc2)nc(OC)c1OCC(F)F [Example 30, 4-benzyl-N-[5-(2,2-difluoroethoxy)-4,6-dimethoxy-pyrimidin-2-yl]-1H-pyrrole-3-sulfonamide]
222 | COc1nc(NS(=O)(=O)c2c[nH]c(-c3nc(C)cs3)c2)nc(OC)c1OCCF [Example 31, N-[5-(2-fluoroethoxy)-4,6-dimethoxy-pyrimidin-2-yl]-5-(4-methylthiazol-2-yl)-1H-pyrrole-3-sulfonamide]
523 | COc1nc(NS(=O)(=O)c2c[nH]c(-c3nc(C)cs3)c2)nc(OC)c1OC(F)F [Example 32, N-[5-(difluoromethoxy)-4,6-dimethoxy-pyrimidin-2-yl]-5-(4-methylthiazol-2-yl)-1H-pyrrole-3-sulfonamide]
283 | COc1nc(NS(=O)(=O)c2c[nH]c(-c3nc(C)cs3)c2)nc(OC)c1OCC(F)F [Example 33, N-[5-(2,2-difluoroethoxy)-4,6-dimethoxy-pyrimidin-2-yl]-5-(4-methylthiazol-2-yl)-1H-pyrrole-3-sulfonamide]
457 | COc1nc(NS(=O)(=O)c2c[nH]c(-c3nccs3)c2)ncc1CC(F)F [Example 34, N-[5-(2,2-difluoroethyl)-4-methoxy-pyrimidin-2-yl]-5-thiazol-2-yl-1H-pyrrole-3-sulfonamide]
170 | COc1nc(NS(=O)(=O)c2c[nH]c(-c3nccs3)c2)nc(OC)c1C1CC1C#N (centres unmarked) [Example 35, N-[5-(2-cyanocyclopropyl)-4,6-dimethoxy-pyrimidin-2-yl]-5-thiazol-2-yl-1H-pyrrole-3-sulfonamide]
111 | COc1nc(NS(=O)(=O)c2c[nH]c(-c3cncs3)c2)nc(OC)c1OCC(F)F [Example 36, N-[5-(2,2-difluoroethoxy)-4,6-dimethoxy-pyrimidin-2-yl]-5-thiazol-5-yl-1H-pyrrole-3-sulfonamide]
